Data: US20260028354A1, “TETRAHYDRONAPHTHALENE DERIVATIVES AS ESTROGEN RECEPTOR DEGRADERS” (REGENT OF THE UNIVERSITY OF MICHIGAN, priority 2022, published 2026)
Where a name gives a salt, the structure may show the parent alone. Read-outs that look alike come from different tables or passages of the source.

Experiments:
ER in T47D cells = ER in T47D cells (Homo sapiens (Human), UniProt P03372); assay: In-cell Western (ICW) ER degradation assay in T47D cells; type: cell-based; settings: for DC50: ER degradation
Chain of ER in T47D cells (P03372 whole entry): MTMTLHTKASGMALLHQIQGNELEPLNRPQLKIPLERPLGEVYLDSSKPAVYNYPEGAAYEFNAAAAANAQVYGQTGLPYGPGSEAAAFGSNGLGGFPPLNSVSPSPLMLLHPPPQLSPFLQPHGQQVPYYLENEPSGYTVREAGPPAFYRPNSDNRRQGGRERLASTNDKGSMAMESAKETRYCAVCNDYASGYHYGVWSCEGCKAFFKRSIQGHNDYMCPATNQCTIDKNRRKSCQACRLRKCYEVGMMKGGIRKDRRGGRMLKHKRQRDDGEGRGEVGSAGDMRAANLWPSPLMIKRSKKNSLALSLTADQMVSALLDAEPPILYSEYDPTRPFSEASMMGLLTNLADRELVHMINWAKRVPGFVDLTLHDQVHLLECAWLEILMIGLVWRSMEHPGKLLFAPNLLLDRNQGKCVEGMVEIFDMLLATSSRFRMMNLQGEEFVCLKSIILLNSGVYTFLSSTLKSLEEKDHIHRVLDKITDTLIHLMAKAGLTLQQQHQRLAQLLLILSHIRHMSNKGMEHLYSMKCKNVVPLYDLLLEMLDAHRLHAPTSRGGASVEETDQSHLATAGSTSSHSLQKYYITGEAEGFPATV
Source text: (§1) In-cell Western (ICW) assays in MCF-7 and T47D cell lines.
(§2) Day 3: After 16 hrs of compounds treatment, cells were fixed by 4% PFA and permeabilized with elution buffer (0.1% Triton X-100 in 1% PBS Solution). Subsequently, cells were blocked with Intercept (PBS) Blocking Buffer (Li-COR, Odyssey Blocking Buffer), and were stained with ER (1:500, Cell signaling) primary antibody for overnight at cold room.
(§3) Day 4: Remove the buffer, add IRDye 800CW Goat anti-Rabbit IgG Secondary Antibody (1:2000) and CellTag 700 Stain (1:500) in Intercept (PBS) Blocking Buffer. Finally, cell plate is placed in incubator to dry. Image and signal were captured on Odyssey® DLx Imaging System.

ER in MCF-7 cells = ER in MCF-7 cells (Homo sapiens (Human), UniProt P03372); assay: In-cell Western (ICW) ER degradation assay in MCF-7 cells; type: cell-based; settings: for DC50: MCF-7, ER degradation, read-out: MCF7 DC50
Chain of ER in MCF-7 cells (P03372 whole entry): as above
Source text: as §1, §2, §3

[1] = maximal ER degradation, 16 hrs treatment, read-out: T47D Dmax
[2] = MCF7, MCF-7, maximal ER degradation, 16 hrs treatment, read-out: MCF7 Dmax
[3] = MCF7, read-out: MCF7 Dmax, MCF-7, maximal ER degradation, 16 hrs treatment
[4] = read-out: T47D Dmax, T47D, maximal ER degradation, 16 hrs treatment

Row | Structure (SMILES) | DC50 (ER in T47D cells; 16 hrs treatment) [nM] | Dmax (ER in T47D cells; [1]) [%] | Dmax (ER in MCF-7 cells; [2]) [%] | DC50 (ER in MCF-7 cells; 16 hrs treatment) [nM] | T47D Dmax (ER in T47D cells; maximal ER degradation, 16 hrs treatment) | Dmax (ER in MCF-7 cells; [3]) [%] | Dmax (ER in T47D cells; [4]) [%]
1 | COc1cc(N2CCC(CN3CCC(c4ccc(N[C@@H]5CCC(=O)NC5=O)cc4F)CC3)CC2)ccc1[C@H]1c2ccc(O)cc2CC[C@H]1c1ccccc1 (stereo in doubt) [Compound A84, (R)-3-((3-fluoro-4-(1-((1-(4-((1R,2R)-6-hydroxy-2-phenyl-1,2,3,4-tetrahydronaphthalen-1-yl)-3-methoxyphenyl)piperidin-4-yl)methyl)piperidin-4-yl)-phenyl)amino)piperidine-2,6-dione formate] | 10 to 100 | 25 to 50 | < 25 | < 1 |  |  | 
2 | COc1cc(N2CCC3(CC2)CC(CN2CCC(c4ccc(N[C@@H]5CCC(=O)NC5=O)cc4)CC2)C3)c(F)cc1[C@H]1c2ccc(O)cc2CC[C@H]1c1ccccc1 (single isomer, unassigned) [Compound A46] | 10 to 100 | 25 to 50 | 25 to 50 | 10 to 100 |  |  | 
3 | O=C1CC[C@@H](N2Cc3cc4c(cc3C2=O)OC[C@H]2CN(CC3COC5(C3)CN(c3ccc([C@H]6c7ccc(O)cc7CC[C@H]6c6ccccc6)cc3)C5)CCN42)C(=O)N1 (stereo in doubt) [Compound A8, (3R)-3-((4aR)-3-((2-(4-((1S,2R)-6-hydroxy-2-phenyl-1,2,3,4-tetrahydronaphthalen-1-yl)phenyl)-5-oxa-2-azaspiro[3,4]octan-7-yl)methyl)-8-oxo-1,2,3,4,4a,5,8,10-octahydro-9H-pyrazino[1′,2′: 4,5][1,4]oxazino[2,3-f]isoindol-9-yl)piperidine-2,6-dione] | < 1 |  |  | < 1 | A (“A”: >=75%) | > 75 | 
4 | COc1cc(N2CCC3(CC2)CC(CN2CCC(c4ccc(N[C@H]5CCC(=O)NC5=O)cc4)CC2)C3)ccc1[C@@H]1c2ccc(O)cc2CC[C@@H]1c1ccccc1 (single isomer, unassigned) [Compound A96] | < 1 | 50 to 75 | 50 to 75 | < 1 |  |  | 
5 | O=C1CC[C@H](N2Cc3cc4c(cc3C2=O)OCC42CCN(C[C@H]3COC4(CCN(c5ccc([C@H]6c7ccc(O)cc7CC[C@H]6c6ccccc6)cc5)CC4)C3)CC2)C(=O)N1 [Compound A22, (S)-3-(1′-(((S)-8-(4-((1S,2R)-6-hydroxy-2-phenyl-1,2,3,4-tetrahydronaphthalen-1-yl)-phenyl)-1-oxa-8-azaspiro[4.5]decan-3-yl)methyl)-7-oxo-5,7-dihydro-2H,6H-spiro[furo[2,3-f]isoindolc-3,4′-pipcridin]-6-yl)pipcridinc-2,6-dione] | < 1 |  |  | < 1 |  | 50 to 75 | 25 to 50
6 | COc1cc([C@H]2c3ccc(O)cc3CC[C@H]2c2ccccc2)c(F)cc1N1CCC2(CC1)CC(CN1CCN3c4ccc5c(c4OC[C@H]3C1)CN([C@H]1CCC(=O)NC1=O)C5=O)C2 (single isomer, unassigned) [Compound A102] | 1 to 10 |  |  |  |  |  | > 75
7 | COc1cc(N2CCC(CN3CCN4c5cc6c(cc5OC[C@@H]4C3)C(=O)N([C@H]3CCC(=O)NC3=O)C6)CC2)ccc1[C@H]1c2ccc(O)cc2CC[C@H]1c1ccccc1 (single isomer, unassigned) [Compound A21] | 1 to 10 | 50 to 75 |  | 10 to 100 |  | 50 to 75 | 
8 | COc1cc(N2CCC(CN3CCC(c4ccc(N[C@@H]5CCC(=O)NC5=O)cc4F)CC3)CC2)ccc1[C@@H]1c2ccc(O)cc2CC[C@@H]1c1ccccc1 (single isomer, unassigned) [Compound A85] | < 1 | 50 to 75 | 25 to 50 | < 1 |  |  | 
9 | COc1cc(N2CCC(CN3CCC4(CC3)COc3cc5c(cc34)CN([C@H]3CCC(=O)NC3=O)C5=O)CC2)c(F)cc1[C@@H]1c2ccc(O)cc2CC[C@@H]1c1ccccc1 [Compound A122, (S)-3-(1′-((1-(2-fluoro-4-((1S,2S)-6-hydroxy-2-phenyl-1,2,3,4-tetrahydronaphthalen-1-yl)-5-methoxyphenyl)piperidin-4-yl)methyl)-7-oxo-5,7-dihydro-2H,6H-spiro[furo[2,3-f]isoindole-3,4′-piperidin]-6-yl)piperidine-2,6-dione] | < 1 |  |  | < 1 |  | 50 to 75 | 50 to 75
10 | O=C1CC[C@H](N2Cc3cc4c(cc3C2=O)OCC42CCN(CC3CC4(CCN(c5ccc([C@@H]6c7ccc(O)cc7CC[C@@H]6c6ccccc6)cc5)CC4)C3)CC2)C(=O)N1 [Compound A182, (S)-3-(1′-((7-(4-((1R,2S)-6-hydroxy-2-phenyl-1,2,3,4-tetra-hydronaphthalen-1-yl)phenyl)-7-azaspiro[3.5]nonan-2-yl)-methyl)-7-oxo-5,7-dihydro-2H, 6H-spiro[furo[2,3-f]isoindole-3,4′-piperidin]-6-yl)piperidine-2,6-dione] |  |  |  | < 1 |  | 50 to 75 | 
11 | O=C1CC[C@H](NC(=O)c2ccc3c(n2)OC[C@H]2CN(CC4CCC5(CC4)CN(c4ccc([C@@H]6c7ccc(O)cc7CC[C@@H]6c6ccccc6)cn4)C5)CCN32)C(=O)N1 (single isomer, unassigned) [Compound A127] |  |  | 50 to 75 | 1 to 10 |  |  | 
12 | COc1cc([C@@H]2c3ccc(O)cc3CC[C@@H]2c2ccccc2)c(F)cc1N1CCC2(CC1)CC(CN1CCN3c4ccc5c(c4OC[C@H]3C1)CN([C@H]1CCC(=O)NC1=O)C5=O)C2 (single isomer, unassigned) [Compound A103] | 10 to 100 |  |  |  |  |  | 50 to 75
13 | COc1cc(N2CC3(CC(CN4CCC5(CC4)COc4c5ccc5c4CN(C4CCC(=O)NC4=O)C5=O)C3)C2)c(F)cc1[C@@H]1c2ccc(O)cc2CC[C@@H]1c1ccccc1 (stereo partly drawn) [Compound A184, (S)-3-(1′-((2-(2-fluoro-4-((1S, 2S)-6-hydroxy-2-phenyl-1,2,3,4-tetrahydronaphthalen-1-yl)-5-methoxyphenyl)-2-aza-spiro[3.3]heptan-6-yl)methyl)-6-oxo-6,8-dihydro-2H,7H-spiro[furo[2,3-e]isoindole-3,4′-piperidin]-7-yl)piperidine-2,6-dione] |  |  |  | < 1 |  |  | 

More lines, main results first:

Row | DC50 (ER in T47D cells; 16 hrs treatment) [nM] | Dmax (ER in T47D cells; [1]) [%] | Dmax (ER in MCF-7 cells; [2]) [%] | DC50 (ER in MCF-7 cells; 16 hrs treatment) [nM] | Structure (SMILES) | T47D Dmax (ER in T47D cells; maximal ER degradation, 16 hrs treatment) | Dmax (ER in MCF-7 cells; [3]) [%] | Dmax (ER in T47D cells; [4]) [%]
14 | 1 to 10 | > 75 | > 75 | < 1 | O=C1CC[C@H](N2Cc3c(ccc4c3OC[C@H]3CN(CC5CC6(CCN(c7ncc([C@@H]8c9ccc(O)cc9CC[C@@H]8c8ccccc8)cn7)CC6)C5)CCN43)C2=O)C(=O)N1 (single isomer, unassigned) [Compound A140] |  |  | 
15 |  |  | 50 to 75 | < 1 | O=C1CC[C@H](N2Cc3c(ccc4c3OC[C@H]3CN(C[C@@H]5COC6(CCN(c7ccc([C@@H]8c9ccc(O)cc9CC[C@@H]8c8ccccc8)cn7)CC6)C5)CCN43)C2=O)C(=O)N1 (single isomer, unassigned) [Compound A138] |  |  | 
16 |  |  | 50 to 75 | 1 to 10 | O=C1CC[C@H](N2Cc3c(ccc4c3OC[C@H]3CN(CC5CC6(CCN(c7ncc([C@H]8c9ccc(O)cc9CC[C@H]8c8ccccc8)cn7)CC6)C5)CCN43)C2=O)C(=O)N1 (single isomer, unassigned) [Compound A139] |  |  | 
17 | 1 to 10 | > 75 |  |  | O=C1CC[C@H](NC(=O)c2ccc3c(n2)OC[C@H]2CN(CC4CC5(CCN(c6ccc([C@@H]7c8ccc(O)cc8CC[C@@H]7c7ccccc7)cn6)CC5)C4)CCN32)C(=O)N1 (single isomer, unassigned) [Compound A115] |  |  | 
18 |  |  | > 75 | 1 to 10 | O=C1CC[C@H](N2Cc3cc4c(cc3C2=O)OC[C@@H]2CN(CC3CC5(CCN(c6ccc([C@H]7c8ccc(O)cc8CC[C@H]7c7ccccc7)cc6F)CC5)C3)CCN42)C(=O)N1 (single isomer, unassigned) [Compound A149] |  |  | 
19 |  |  | 50 to 75 | 10 to 100 | COc1cc(N2CC3(CCC(CN4CCN5c6ccc7c(c6OC[C@H]5C4)CN([C@H]4CCC(=O)NC4=O)C7=O)CC3)C2)c(F)cc1[C@H]1c2ccc(O)cc2CC[C@H]1c1ccccc1 (single isomer, unassigned) [Compound A165] |  |  | 
20 |  |  | 25 to 50 | 10 to 100 | COc1c([C@H]2c3ccc(O)cc3CC[C@H]2c2ccccc2)ccc(N2CCC(CN3CCN4c5cc6c(cc5OC[C@@H]4C3)C(=O)N([C@H]3CCC(=O)NC3=O)C6)CC2)c1F (single isomer, unassigned) [Compound A170] |  |  | 
21 | > 100 | < 25 |  |  | O=C1CC[C@H](NC(=O)c2ccc3c(n2)OC[C@H]2CN(CC4CC5(CCN(c6ccc([C@H]7c8ccc(O)cc8CC[C@H]7c7ccccc7)cn6)CC5)C4)CCN32)C(=O)N1 (single isomer, unassigned) [Compound A114] |  |  | 
22 |  |  | > 75 | < 1 | COc1c([C@@H]2c3ccc(O)cc3CC[C@@H]2c2ccccc2)ccc(N2CCC(CN3CCN4c5cc6c(cc5OC[C@@H]4C3)C(=O)N([C@H]3CCC(=O)NC3=O)C6)CC2)c1F (single isomer, unassigned) [Compound A171] |  |  | 
23 |  |  | < 25 | 1 to 10 | O=C1CC[C@H](N2Cc3c(ccc4c3OC[C@H]3CN(CC5COC6(CCN(c7ccc([C@H]8c9ccc(O)cc9CC[C@H]8c8ccccc8)cn7)CC6)C5)CCN43)C2=O)C(=O)N1 (single isomer, unassigned) [Compound A137] |  |  | 
24 |  |  | 50 to 75 | 1 to 10 | O=C1CC[C@H](N2Cc3cc4c(cc3C2=O)OC[C@@H]2CN(CC3CC5(CCN(c6ncc([C@@H]7c8ccc(O)cc8CC[C@@H]7c7ccccc7)cn6)CC5)C3)CCN42)C(=O)N1 (single isomer, unassigned) [Compound A144] |  |  | 
